Measurements taken from ChEMBL document CHEMBL1201862, “PubChem BioAssay data set” (2004).
Calls of active or inactive are those of the source.

Experiments:
[1] = HEK-293T cell viability reduction – luminescence, B-cell screen hits, cytotoxicity control for BCR NF-kB inhibitor project, dose response (AID 489021); type: functional, cell-based;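 note: HEK-293T cells carrying an NF-kB luciferase reporter; cells exposed to compound for about 14 hours before viability readout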
[2] = alpha-synuclein stem-loop luciferase translation blockers – H4 neuroglioma cells, luminescence, confirmation (AID 1988); type: functional, cell-based
[3] = Luminescence Cell-Based Dose Response HTS to Identify Inhibitors of 5'UTR Stem-Loop Driven Prion Protein mRNA Translation in H4 Neuroglioblastoma Cells. [Related pubchem assays: 1827 (Project Summary), 1813 (Primary HTS)]; type: functional
[4] = biological target: T1, Zinc finger protein mex-5 (Caenorhabditis elegans, UniProt Q9XUB2); assay: potency of MEX-5 RNA-binding blockers – biochemical, C. elegans, fluorescence polarization, dose response (AID 1960)
T1 sequence (Q9XUB2 whole entry): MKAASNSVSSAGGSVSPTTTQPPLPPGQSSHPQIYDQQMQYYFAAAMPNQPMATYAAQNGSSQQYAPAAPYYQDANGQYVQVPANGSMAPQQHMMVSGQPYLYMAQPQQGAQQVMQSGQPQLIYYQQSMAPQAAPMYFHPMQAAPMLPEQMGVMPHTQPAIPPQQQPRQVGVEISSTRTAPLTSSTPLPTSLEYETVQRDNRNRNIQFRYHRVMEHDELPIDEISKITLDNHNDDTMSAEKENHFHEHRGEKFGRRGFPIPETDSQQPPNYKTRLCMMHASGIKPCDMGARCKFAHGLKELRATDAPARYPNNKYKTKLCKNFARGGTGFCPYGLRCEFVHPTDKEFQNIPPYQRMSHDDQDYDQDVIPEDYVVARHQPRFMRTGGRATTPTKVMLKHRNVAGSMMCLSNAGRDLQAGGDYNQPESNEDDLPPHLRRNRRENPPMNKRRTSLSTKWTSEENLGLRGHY

[5] = luciferase reporter signal suppression in cells – H4 neuroglioma cells, luminescence, dose response (AID 1990); type: functional, cell-based
[6] = biological target: T2, RNA-binding protein pos-1 (Caenorhabditis elegans, UniProt G5EF15); assay: disruptors of C. elegans POS-1 RNA interaction – biochemical, fluorescence polarization, dose response (AID 1964);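 note: purified POS-1 fused to maltose binding protein made in E. coli; potency of compounds blocking POS-1 binding to fluorescent RNA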
T2 sequence (G5EF15 whole entry): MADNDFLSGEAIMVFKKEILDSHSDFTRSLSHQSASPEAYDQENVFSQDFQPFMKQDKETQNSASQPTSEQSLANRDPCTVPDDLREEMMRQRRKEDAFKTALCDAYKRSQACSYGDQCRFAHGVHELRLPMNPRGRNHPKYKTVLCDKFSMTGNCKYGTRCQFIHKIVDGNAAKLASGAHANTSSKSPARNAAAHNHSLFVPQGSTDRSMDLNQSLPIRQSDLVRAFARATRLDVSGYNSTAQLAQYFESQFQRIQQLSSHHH

[7] = biological target: Peroxisome proliferator-activated receptor gamma/Nuclear receptor coactivator 2 (Homo sapiens, UniProt P37231); assay: (§1) TR-FRET dose response biochemical High Throughput Screening assay for agonists of the steroid receptor coactivator 2 (SRC-2) recruitment by the peroxisome proliferator-activated receptor gamma (PPAR gamma): non-selective agonists. [Related pubchem assays: 1297, 1032 ]; type: functional
[8] = biological target: Peroxisome proliferator-activated receptor gamma/Nuclear receptor coactivator 1 (Homo sapiens, UniProt P37231); assay: as §1, with “1 (SRC-1)” for “2 (SRC-2)”, “assays (depositor defined):AID1300, AID1808, AID504735, AID631]” for “assays: 1297, 1032 ]”; type: protein assay
[9] = biological target: Peroxisome proliferator-activated receptor gamma/Nuclear receptor coactivator 3 (Homo sapiens, UniProt P37231); assay: as §1, with “3 (SRC-3)” for “2 (SRC-2)”, “1301 (Confirmation screen.), 1048 (Primary screen.)]” for “1297, 1032 ]”; type: functional
Peroxisome proliferator-activated receptor gamma/Nuclear receptor coactivator 3, sequence (P37231 whole entry): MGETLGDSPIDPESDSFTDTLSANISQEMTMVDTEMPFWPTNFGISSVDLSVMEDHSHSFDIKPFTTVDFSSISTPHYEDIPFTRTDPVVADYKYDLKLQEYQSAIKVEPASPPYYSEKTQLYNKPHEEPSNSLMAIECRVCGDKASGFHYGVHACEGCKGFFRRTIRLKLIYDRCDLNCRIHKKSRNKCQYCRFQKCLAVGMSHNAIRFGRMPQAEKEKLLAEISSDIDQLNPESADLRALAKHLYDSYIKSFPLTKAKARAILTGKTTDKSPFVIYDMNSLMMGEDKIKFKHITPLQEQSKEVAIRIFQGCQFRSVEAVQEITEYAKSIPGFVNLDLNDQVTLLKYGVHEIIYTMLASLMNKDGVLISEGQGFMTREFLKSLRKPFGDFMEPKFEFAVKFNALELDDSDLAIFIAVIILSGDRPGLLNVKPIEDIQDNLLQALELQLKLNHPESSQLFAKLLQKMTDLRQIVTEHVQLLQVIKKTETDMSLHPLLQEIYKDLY
Peroxisome proliferator-activated receptor gamma/Nuclear receptor coactivator 3, sequence (Q9Y6Q9 whole entry, further chain): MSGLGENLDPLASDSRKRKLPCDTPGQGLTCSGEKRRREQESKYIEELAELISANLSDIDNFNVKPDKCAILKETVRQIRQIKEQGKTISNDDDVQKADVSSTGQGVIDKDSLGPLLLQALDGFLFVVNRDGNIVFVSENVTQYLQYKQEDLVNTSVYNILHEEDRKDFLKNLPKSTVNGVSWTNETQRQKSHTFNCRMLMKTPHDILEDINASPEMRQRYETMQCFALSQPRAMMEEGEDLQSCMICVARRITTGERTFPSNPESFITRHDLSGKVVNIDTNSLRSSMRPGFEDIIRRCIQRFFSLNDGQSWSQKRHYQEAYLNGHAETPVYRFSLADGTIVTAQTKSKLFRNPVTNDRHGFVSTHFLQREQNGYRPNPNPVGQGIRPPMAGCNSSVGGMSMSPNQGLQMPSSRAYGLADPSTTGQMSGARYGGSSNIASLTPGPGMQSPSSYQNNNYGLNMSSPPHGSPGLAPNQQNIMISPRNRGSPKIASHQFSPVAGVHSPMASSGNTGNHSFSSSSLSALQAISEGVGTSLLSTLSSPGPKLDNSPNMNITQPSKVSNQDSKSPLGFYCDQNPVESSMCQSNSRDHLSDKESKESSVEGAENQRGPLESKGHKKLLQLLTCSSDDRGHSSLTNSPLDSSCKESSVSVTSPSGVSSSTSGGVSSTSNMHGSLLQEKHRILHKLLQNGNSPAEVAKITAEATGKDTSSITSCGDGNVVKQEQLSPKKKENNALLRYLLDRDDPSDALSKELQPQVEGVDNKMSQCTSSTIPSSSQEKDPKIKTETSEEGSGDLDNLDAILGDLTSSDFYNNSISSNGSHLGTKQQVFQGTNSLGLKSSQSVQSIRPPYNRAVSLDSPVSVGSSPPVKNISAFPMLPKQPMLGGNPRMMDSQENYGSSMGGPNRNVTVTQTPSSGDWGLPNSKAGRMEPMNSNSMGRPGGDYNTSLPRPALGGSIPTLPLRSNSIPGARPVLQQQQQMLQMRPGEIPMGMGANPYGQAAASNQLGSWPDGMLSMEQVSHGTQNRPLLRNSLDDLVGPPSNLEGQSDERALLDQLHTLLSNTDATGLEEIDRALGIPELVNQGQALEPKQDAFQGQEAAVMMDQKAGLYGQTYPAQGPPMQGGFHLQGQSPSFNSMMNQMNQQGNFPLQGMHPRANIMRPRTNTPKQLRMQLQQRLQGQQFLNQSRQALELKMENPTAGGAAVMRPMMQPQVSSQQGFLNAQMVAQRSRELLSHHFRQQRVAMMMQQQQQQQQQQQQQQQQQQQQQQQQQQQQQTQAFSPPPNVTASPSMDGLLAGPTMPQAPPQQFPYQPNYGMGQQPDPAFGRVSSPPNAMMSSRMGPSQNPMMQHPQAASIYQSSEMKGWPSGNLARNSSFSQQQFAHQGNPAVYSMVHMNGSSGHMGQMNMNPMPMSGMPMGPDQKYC

Peroxisome proliferator-activated receptor gamma/Nuclear receptor coactivator 1, sequence (P37231 whole entry): as the sequence (P37231 whole entry) above
Peroxisome proliferator-activated receptor gamma/Nuclear receptor coactivator 1, sequence (Q15788 whole entry, further chain): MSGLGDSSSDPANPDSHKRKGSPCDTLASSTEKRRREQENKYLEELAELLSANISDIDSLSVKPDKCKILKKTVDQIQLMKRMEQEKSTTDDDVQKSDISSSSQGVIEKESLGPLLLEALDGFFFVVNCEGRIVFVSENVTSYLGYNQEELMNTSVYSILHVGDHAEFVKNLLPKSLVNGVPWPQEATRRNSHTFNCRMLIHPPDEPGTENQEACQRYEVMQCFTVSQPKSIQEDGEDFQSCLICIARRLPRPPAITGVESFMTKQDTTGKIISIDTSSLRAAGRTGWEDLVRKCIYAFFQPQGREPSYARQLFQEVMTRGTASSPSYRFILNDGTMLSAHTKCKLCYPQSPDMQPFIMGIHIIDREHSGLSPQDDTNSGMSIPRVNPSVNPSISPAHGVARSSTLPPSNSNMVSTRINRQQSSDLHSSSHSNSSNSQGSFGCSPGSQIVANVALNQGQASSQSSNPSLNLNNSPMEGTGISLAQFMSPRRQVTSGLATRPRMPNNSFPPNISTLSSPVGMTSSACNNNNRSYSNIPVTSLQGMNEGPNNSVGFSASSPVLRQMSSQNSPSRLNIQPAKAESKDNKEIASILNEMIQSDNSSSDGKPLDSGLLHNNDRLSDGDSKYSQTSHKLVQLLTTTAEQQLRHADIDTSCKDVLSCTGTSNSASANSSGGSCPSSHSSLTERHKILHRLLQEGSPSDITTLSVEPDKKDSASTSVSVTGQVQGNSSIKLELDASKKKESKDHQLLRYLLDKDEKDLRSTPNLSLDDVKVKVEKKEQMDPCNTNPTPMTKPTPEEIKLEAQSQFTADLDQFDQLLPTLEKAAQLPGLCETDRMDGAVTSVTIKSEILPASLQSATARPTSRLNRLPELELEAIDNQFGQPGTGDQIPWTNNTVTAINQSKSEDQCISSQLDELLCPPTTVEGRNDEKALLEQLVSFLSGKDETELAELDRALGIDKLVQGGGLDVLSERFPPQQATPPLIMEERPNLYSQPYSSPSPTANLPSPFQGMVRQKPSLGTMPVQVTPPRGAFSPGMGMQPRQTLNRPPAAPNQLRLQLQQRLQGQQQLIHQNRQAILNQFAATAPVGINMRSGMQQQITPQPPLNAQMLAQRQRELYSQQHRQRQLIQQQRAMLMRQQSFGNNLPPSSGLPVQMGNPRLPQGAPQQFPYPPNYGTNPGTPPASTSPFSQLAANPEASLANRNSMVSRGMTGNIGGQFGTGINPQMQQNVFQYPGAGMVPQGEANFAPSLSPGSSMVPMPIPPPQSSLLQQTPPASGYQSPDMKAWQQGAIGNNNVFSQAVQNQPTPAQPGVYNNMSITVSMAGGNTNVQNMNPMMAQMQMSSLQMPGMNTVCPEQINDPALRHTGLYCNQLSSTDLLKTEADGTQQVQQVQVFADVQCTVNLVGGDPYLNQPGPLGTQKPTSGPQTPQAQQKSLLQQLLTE

Row | Compound | IC50 [1] | EC50 [2] | EC50 [3] | EC50 [4] | EC50 [5] | EC50 [6] | EC50 [7] | EC50 [8] | EC50 [9]
1 | C=CCOc1ccc(NC(=O)C(=O)NCCCn2ccnc2)cc1 | > 80 µM (inactive) | – | – | – | – | – | – | – | –
2 | COc1cccc(/C=C2\SC(=S)N(CCCC(=O)NC3=NCCS3)C2=O)c1 | > 80 µM (inactive) | 13.2 µM (active) | 14 µM (active) | > 300 µM (not active) | 11.8 µM (active) | > 300 µM (not active) | – | – | –
3 | O=C(CSc1ncnc2c1oc1ccccc12)Nc1nc2ccccc2s1 | – | – | – | – | – | – | > 79.4 µM (not active) | > 79.4 µM (inactive) | > 79.4 µM (not active)
